# Assay results published in US9624241B2 (Incyte Corporation, priority 2013, dated 2017).
# What was measured:
# [1] = target: BRD4-BD1 (Homo sapiens (Human), UniProt O60885); experiment: BRD4 AlphaScreen Assay (Example A1), BRD4-BD1; type: binding; conditions: Assay A1, 3.8 nM BRD4-BD1, 50 nM H4Ac4 peptide; read-out: BRD4 BD-1 enzyme IC50
# Protocol: (§1) BRD4-BD1 and BRD4-BD2 assays were conducted in white 384-well polystyrene plate in a final volume of 20 μL for BD1 and 40 μL for BD2. Inhibitors were first serially diluted in DMSO and added to the plate wells before the addition of other reaction components. […] After plate sealing, the plate was incubated in the dark at room temperature for 75 min. before reading on a PHERAstar FS plate reader (BMG Labtech). IC50 determination was performed by fitting the curve of percent control activity versus the log of the inhibitor concentration using the GraphPad Prism 5.0 software.
# [2] = target: BRD4-BD2 (Homo sapiens (Human), UniProt O60885); experiment: BRD4 AlphaScreen Assay (Example A1), BRD4-BD2; type: binding; conditions: Assay A1, 20 nM BRD4-BD2, 50 nM H4Ac4 peptide; read-out: BRD4 BD-2 enzyme IC50
# Protocol: as §1
IC50 [1],IC50 [2],Compound
< 0.1 µM,< 0.1 µM,"Cc1noc(C)c1-c1ccc2ncn3c2c1OCC3c1ccccc1 (stereo not shown) [Example 39, 7-(3,5-Dimethylisoxazol-4-yl)-4-phenyl-4,5-dihydroimidazo[1,5,4-de][1,4]benzoxazine]"
0.1 to 1 µM,< 0.1 µM,"Cc1cc(-c2ccnn2C)c2c3c1[nH]c(=O)n3C(c1ccccc1)CO2 (stereo not shown) [Example 37, 9-Methyl-7-(1-methyl-1H-pyrazol-5-yl)-4-phenyl-4,5-dihydroimidazo[1,5,4-de][1,4]benzoxazin-2(1H)-one]"
< 0.1 µM,< 0.1 µM,"Cc1noc(C)c1-c1ccc2[nH]c(=O)n3c2c1OCC3c1ccccc1OCC(=O)NCCO (stereo not shown) [Example 50, 2-{2-[7-(3,5-Dimethylisoxazol-4-yl)-2-oxo-1,2,4,5-tetrahydroimidazo[1,5,4-de][1,4]benzoxazin-4-yl]phenoxy}-N-(2-hydroxyethyl)acetamide]"
< 0.1 µM,< 0.1 µM,"Cc1noc(C)c1-c1ccc2nc(N3CCCC3)n3c2c1OCC3c1ccccc1 (stereo not shown) [Example 54, 7-(3,5-Dimethylisoxazol-4-yl)-4-phenyl-2-pyrrolidin-1-yl-4,5-dihydroimidazo[1,5,4-de][1,4]benzoxazine]"
< 0.1 µM,< 0.1 µM,"Cc1noc(C)c1-c1ccc2nc(N(C)C)n3c2c1OCC3c1ccccc1 (stereo not shown) [Example 28, 7-(3,5-Dimethylisoxazol-4-yl)-N,N-dimethyl-4-phenyl-4,5-dihydroimidazo[1,5,4-de][1,4]benzoxazin-2-amine]"
< 0.1 µM,< 0.1 µM,"Cc1noc(C)c1-c1ccc2[nH]c(=O)n3c2c1OC(C)C3c1ccccc1 (stereo not shown) [Example 3, 7-(3,5-Dimethylisoxazol-4-yl)-5-methyl-4-phenyl-4,5-dihydroimidazo[1,5,4-de][1,4]benzoxazin-2(1H)-one]"
< 0.1 µM,< 0.1 µM,"Cc1noc(C)c1-c1ccc2[nH]c(=O)n3c2c1OCC3c1ccc(F)cc1F (stereo not shown) [Example 8, 7-(3,5-Dimethylisoxazol-4-yl)-4-(2,4-difluorophenyl)-4,5-dihydroimidazo[1,5,4-de][1,4]benzoxazin-2(1H)-one]"
1 to 10 µM,0.1 to 1 µM,"Cc1noc(C)c1-c1ccc2nc(NC(C)(C)CO)n3c2c1OCC3c1ccccc1 (stereo not shown) [Example 33, 2-{[7-(3,5-Dimethylisoxazol-4-yl)-4-phenyl-4,5-dihydroimidazo[1,5,4-de][1,4]benzoxazin-2-yl]amino}-2-methylpropan-1-ol]"
< 0.1 µM,< 0.1 µM,"Cc1noc(C)c1-c1ccc2[nH]c(=O)n3c2c1OCC3c1nccs1 (stereo not shown) [Example 21, 7-(3,5-Dimethylisoxazol-4-yl)-4-(1,3-thiazol-2-yl)-4,5-dihydroimidazo[1,5,4-de][1,4]benzoxazin-2(1H)-one]"
< 0.1 µM,< 0.1 µM,"Cc1noc(C)c1-c1ccc2c3c1OCC(c1ccccc1)n3c(=O)n2C (stereo not shown) [Example 2, 7-(3,5-Dimethylisoxazol-4-yl)-1-methyl-4-phenyl-4,5-dihydroimidazo[1,5,4-de][1,4]benzoxazin-2(1H)-one]"
1 to 10 µM,0.1 to 1 µM,"Cc1n[nH]c(C)c1-c1ccc2[nH]c(=O)n3c2c1OCC3c1ccccc1 (stereo not shown) [Example 11, 7-(3,5-Dimethyl-1H-pyrazol-4-yl)-4-phenyl-4,5-dihydroimidazo[1,5,4-de][1,4]benzoxazin-2(1H)-one]"
< 0.1 µM,< 0.1 µM,"CCNC(=O)COc1ccccc1C1COc2c(-c3c(C)noc3C)ccc3[nH]c(=O)n1c23 (stereo not shown) [Example 22, 2-{2-[7-(3,5-Dimethylisoxazol-4-yl)-2-oxo-1,2,4,5-tetrahydroimidazo[1,5,4-de][1,4]benzoxazin-4-yl]phenoxy}-N-ethylacetamide]"
< 0.1 µM,< 0.1 µM,"Cc1noc(C)c1-c1ccc2nc(C)n3c2c1OCC3c1ccccc1 (stereo not shown) [Example 9, 7-(3,5-Dimethylisoxazol-4-yl)-2-methyl-4-phenyl-4,5-dihydroimidazo[1,5,4-de][1,4]benzoxazine]"
< 0.1 µM,< 0.1 µM,Cc1noc(C)c1-c1ccc2nc(N3CCN(C(=O)OC(C)(C)C)CC3)n3c2c1OCC3c1ccccc1 (stereo not shown) [Example 60]
